The source made the active and inactive calls. The calls are words filed in the database; no cut-off is given here.

These results are taken from ChEMBL document CHEMBL3046887, “Microwave-irradiated synthesis and antimicrobial activity of 2-phenyl-7-substitutedalkyl/arylaminoquinoline-4-carboxylic acid derivatives” (2010).

The first test has as its system Enterococcus faecalis. Briefly: Antibacterial activity against Enterococcus faecalis MTCC 439 at 10 ug/well after 24 hr by agar well diffusion method. Format: functional. Conditions: MTCC 439, 24 h, read-out: DIZ.
For the compound `NC(=O)Nc1ccc2c(C(=O)O)cc(-c3ccccc3)nc2c1`, the zone of inhibition at 10 µg/disc came to 6 mm.
As for `O=C(O)c1cc(-c2ccccc2)nc2cc(Nc3nccs3)ccc12`, the zone of inhibition at 10 µg/disc worked out at 12 mm.
On the same count and under the same terms, then `NC(=S)Nc1ccc2c(C(=O)O)cc(-c3ccccc3)nc2c1`, with 9 mm.
Same read-out and setting: the same measure for `O=C(O)c1cc(-c2ccccc2)nc2cc(Nn3cnnc3)ccc12`: 3 mm; for `O=C(O)CNc1ccc2c(C(=O)O)cc(-c3ccccc3)nc2c1`: 7 mm; for `O=C(O)c1cc(-c2ccccc2)nc2cc(N3CCNCC3)ccc12`: 7 mm.
Consider `O=C(O)c1cc(-c2ccccc2)nc2cc(Nc3ccncc3)ccc12`, for which the zone of inhibition at 10 µg/disc was found to be 7 mm.
Same read-out and setting: the same measure for `O=C(O)c1cc(-c2ccccc2)nc2cc(Cl)ccc12`: 7 mm.

The next test deals with Staphylococcus aureus. The test can be described thus: Antibacterial activity against Staphylococcus aureus MTCC 737 at 10 ug/well after 24 hr by agar well diffusion method. Format: functional.
Details: not given
With `O=C(O)CNc1ccc2c(C(=O)O)cc(-c3ccccc3)nc2c1`, the “diameter of the inhibition zone (DIZ)” value was “inactive”.
On the same count and under the same terms, then `O=C(O)c1cc(-c2ccccc2)nc2cc(Cl)ccc12`, with “inactive”.

Staying with this test, now noted: MTCC 737, 24 h, read-out: DIZ.
On to `NC(=O)Nc1ccc2c(C(=O)O)cc(-c3ccccc3)nc2c1`, for which the zone of inhibition at 10 µg/disc amounted to 9 mm.
The same measure, in the same setting: then `O=C(O)c1cc(-c2ccccc2)nc2cc(Nc3nccs3)ccc12`, with 10 mm; and `NC(=S)Nc1ccc2c(C(=O)O)cc(-c3ccccc3)nc2c1`, with 9 mm; and `O=C(O)c1cc(-c2ccccc2)nc2cc(Nn3cnnc3)ccc12`, with 2 mm.
For the compound `O=C(O)c1cc(-c2ccccc2)nc2cc(N3CCNCC3)ccc12`, the zone of inhibition at 10 µg/disc amounted to 4 mm.
On the same count and under the same terms, then `O=C(O)c1cc(-c2ccccc2)nc2cc(Nc3ccncc3)ccc12`, with 3 mm.

The subject of a further test is Streptococcus pyogenes. Briefly: Antibacterial activity against Streptococcus pyogenes MTCC 442 after 24 hr by agar dilution method. Format: functional.
Details: not given
In turn, `O=C(O)c1cc(-c2ccccc2)nc2cc(Nc3nccs3)ccc12` had an MIC of 5 µg.

In a further test the test system is Klebsiella pneumoniae. Briefly: Antibacterial activity against Klebsiella pneumoniae MTCC 109 at 10 ug/well after 24 hr by agar well diffusion method. It counts as functional.
Details: not given
As to `NC(=S)Nc1ccc2c(C(=O)O)cc(-c3ccccc3)nc2c1`, the “diameter of the inhibition zone (DIZ)” value is “inactive”.

The test is the same for the next values; noted with them: MTCC 109, 24 h, read-out: DIZ.
For the compound `NC(=O)Nc1ccc2c(C(=O)O)cc(-c3ccccc3)nc2c1`, the zone of inhibition at 10 µg/disc was found to be 6 mm.
In the case of `O=C(O)c1cc(-c2ccccc2)nc2cc(Nc3nccs3)ccc12`, the zone of inhibition at 10 µg/disc was 5 mm.
Still for that read-out and setting: then `O=C(O)c1cc(-c2ccccc2)nc2cc(Nn3cnnc3)ccc12`, with 4 mm; and `O=C(O)CNc1ccc2c(C(=O)O)cc(-c3ccccc3)nc2c1`, with 5 mm.
The same measure, in the same setting: the same measure for `O=C(O)c1cc(-c2ccccc2)nc2cc(N3CCNCC3)ccc12`: 6 mm; for `O=C(O)c1cc(-c2ccccc2)nc2cc(Nc3ccncc3)ccc12`: 4 mm; for `O=C(O)c1cc(-c2ccccc2)nc2cc(Cl)ccc12`: 3 mm.

For the next test, the system named is Bacillus cereus. The test can be described thus: Antibacterial activity against Bacillus cereus MTCC 430 at 10 ug/well after 24 hr by agar well diffusion method. It counts as functional. The following applies: MTCC 430, 24 h, read-out: DIZ.
In the case of `NC(=O)Nc1ccc2c(C(=O)O)cc(-c3ccccc3)nc2c1`, the zone of inhibition at 10 µg/disc was found to be 10 mm.
On the same count and under the same terms, then `O=C(O)c1cc(-c2ccccc2)nc2cc(Nc3nccs3)ccc12`, with 13 mm.
As for `NC(=S)Nc1ccc2c(C(=O)O)cc(-c3ccccc3)nc2c1`, the zone of inhibition at 10 µg/disc was found to be 5 mm.
Take `O=C(O)c1cc(-c2ccccc2)nc2cc(Nn3cnnc3)ccc12`: the zone of inhibition at 10 µg/disc amounted to 3 mm.
The same measure, in the same setting: the same measure for `O=C(O)CNc1ccc2c(C(=O)O)cc(-c3ccccc3)nc2c1`: 4 mm; for `O=C(O)c1cc(-c2ccccc2)nc2cc(N3CCNCC3)ccc12`: 5 mm.
Still for that read-out and setting: the same measure for `O=C(O)c1cc(-c2ccccc2)nc2cc(Nc3ccncc3)ccc12`: 5 mm; for `O=C(O)c1cc(-c2ccccc2)nc2cc(Cl)ccc12`: 4 mm.

A further test concerns Pseudomonas oleovorans. The test can be described thus: Antibacterial activity against Pseudomonas oleovorans MTCC 617 at 10 ug/well after 24 hr by agar well diffusion method. Format: functional. Conditions: Ectopseudomonas oleovorans, MTCC 617, 24 h; read-out: DIZ.
In the case of `NC(=O)Nc1ccc2c(C(=O)O)cc(-c3ccccc3)nc2c1`, the zone of inhibition at 10 µg/disc worked out at 9 mm.
On the same count and under the same terms, then `O=C(O)c1cc(-c2ccccc2)nc2cc(Nc3nccs3)ccc12`, with 13 mm.
In the case of `NC(=S)Nc1ccc2c(C(=O)O)cc(-c3ccccc3)nc2c1`, the zone of inhibition at 10 µg/disc came out at 7 mm.
On the same count and under the same terms, then `O=C(O)c1cc(-c2ccccc2)nc2cc(Nn3cnnc3)ccc12`, with 4 mm.
For `O=C(O)CNc1ccc2c(C(=O)O)cc(-c3ccccc3)nc2c1`, the zone of inhibition at 10 µg/disc came out at 8 mm.
As for `O=C(O)c1cc(-c2ccccc2)nc2cc(N3CCNCC3)ccc12`, the zone of inhibition at 10 µg/disc is 11 mm.
Still for that read-out and setting: the same measure for `O=C(O)c1cc(-c2ccccc2)nc2cc(Nc3ccncc3)ccc12`: 4 mm.
On the same count and under the same terms, the same measure for `O=C(O)c1cc(-c2ccccc2)nc2cc(Cl)ccc12`: 6 mm.

In a further test the test system is Escherichia coli. The test can be described thus: Antibacterial activity against Escherichia coli MTCC 1652 at 10 ug/well after 24 hr by agar well diffusion method. It counts as functional. The following applies: MTCC 1652, 24 h, read-out: DIZ.
Consider `NC(=O)Nc1ccc2c(C(=O)O)cc(-c3ccccc3)nc2c1`, for which the zone of inhibition at 10 µg/disc is 7 mm.
Regarding `O=C(O)c1cc(-c2ccccc2)nc2cc(Nc3nccs3)ccc12`, the zone of inhibition at 10 µg/disc was determined as 7 mm.
On to `NC(=S)Nc1ccc2c(C(=O)O)cc(-c3ccccc3)nc2c1`, for which the zone of inhibition at 10 µg/disc turned out to be 5 mm.
For the compound `O=C(O)c1cc(-c2ccccc2)nc2cc(Nn3cnnc3)ccc12`, the zone of inhibition at 10 µg/disc was 3 mm.
Regarding `O=C(O)CNc1ccc2c(C(=O)O)cc(-c3ccccc3)nc2c1`, the zone of inhibition at 10 µg/disc was 2 mm.
With `O=C(O)c1cc(-c2ccccc2)nc2cc(N3CCNCC3)ccc12`, the zone of inhibition at 10 µg/disc stood at 10 mm.
Still for that read-out and setting: the same measure for `O=C(O)c1cc(-c2ccccc2)nc2cc(Nc3ccncc3)ccc12`: 4 mm.
The same measure, in the same setting: then `O=C(O)c1cc(-c2ccccc2)nc2cc(Cl)ccc12`, with 7 mm.

In a further test the test system is Pseudomonas aeruginosa. Briefly: Antibacterial activity against Pseudomonas aeruginosa MTCC 741 after 24 hr by agar dilution method. Format: functional.
Details: not given
`O=C(O)c1cc(-c2ccccc2)nc2cc(Nc3nccs3)ccc12` returned an MIC of 3 µg.

Another test deals with Bacillus subtilis. Briefly: Antibacterial activity against Bacillus subtilis MTCC 2397 at 10 ug/well after 24 hr by agar well diffusion method. Format: functional.
Details: not given
Consider `NC(=S)Nc1ccc2c(C(=O)O)cc(-c3ccccc3)nc2c1`, for which the “diameter of the inhibition zone (DIZ)” value was “inactive”.
Consider `O=C(O)c1cc(-c2ccccc2)nc2cc(Nn3cnnc3)ccc12`, for which the “diameter of the inhibition zone (DIZ)” value is “inactive”.
The same measure, in the same setting: the same measure for `O=C(O)CNc1ccc2c(C(=O)O)cc(-c3ccccc3)nc2c1`: “inactive”.

Staying with this test, now noted: MTCC 2397, 24 h, read-out: DIZ.
For the compound `NC(=O)Nc1ccc2c(C(=O)O)cc(-c3ccccc3)nc2c1`, the zone of inhibition at 10 µg/disc was determined as 9 mm.
Same read-out and setting: then `O=C(O)c1cc(-c2ccccc2)nc2cc(Nc3nccs3)ccc12`, with 9 mm; and `O=C(O)c1cc(-c2ccccc2)nc2cc(N3CCNCC3)ccc12`, with 2 mm; and `O=C(O)c1cc(-c2ccccc2)nc2cc(Nc3ccncc3)ccc12`, with 5 mm.
For `O=C(O)c1cc(-c2ccccc2)nc2cc(Cl)ccc12`, the zone of inhibition at 10 µg/disc amounted to 5 mm.

The subject of a further test is Pseudomonas aeruginosa. The test can be described thus: Antibacterial activity against Pseudomonas aeruginosa MTCC 741 at 10 ug/well after 24 hr by agar well diffusion method. It counts as functional.
Details: not given
For `O=C(O)c1cc(-c2ccccc2)nc2cc(Nn3cnnc3)ccc12`, the “diameter of the inhibition zone (DIZ)” value is “inactive”.

The test is the same for the next values; noted with them: MTCC 741, 24 h, read-out: DIZ.
Consider `NC(=O)Nc1ccc2c(C(=O)O)cc(-c3ccccc3)nc2c1`, for which the zone of inhibition at 10 µg/disc turned out to be 9 mm.
Still for that read-out and setting: then `O=C(O)c1cc(-c2ccccc2)nc2cc(Nc3nccs3)ccc12`, with 15 mm; and `NC(=S)Nc1ccc2c(C(=O)O)cc(-c3ccccc3)nc2c1`, with 12 mm.
Still for that read-out and setting: the same measure for `O=C(O)CNc1ccc2c(C(=O)O)cc(-c3ccccc3)nc2c1`: 4 mm; for `O=C(O)c1cc(-c2ccccc2)nc2cc(N3CCNCC3)ccc12`: 4 mm.
Same read-out and setting: then `O=C(O)c1cc(-c2ccccc2)nc2cc(Nc3ccncc3)ccc12`, with 5 mm.
Take `O=C(O)c1cc(-c2ccccc2)nc2cc(Cl)ccc12`: the zone of inhibition at 10 µg/disc came to 2 mm.

In the next test the test system is Streptococcus pyogenes. Briefly: Antibacterial activity against Streptococcus pyogenes MTCC 442 at 10 ug/well after 24 hr by agar well diffusion method. It counts as functional.
Details: not given
Turning to `O=C(O)c1cc(-c2ccccc2)nc2cc(Nn3cnnc3)ccc12`, the “diameter of the inhibition zone (DIZ)” value is “inactive”.
On the same count and under the same terms, then `O=C(O)c1cc(-c2ccccc2)nc2cc(Nc3ccncc3)ccc12`, with “inactive”.

The test is the same for the next values; noted with them: MTCC 442, 24 h, read-out: DIZ.
On to `NC(=O)Nc1ccc2c(C(=O)O)cc(-c3ccccc3)nc2c1`, for which the zone of inhibition at 10 µg/disc turned out to be 9 mm.
Regarding `O=C(O)c1cc(-c2ccccc2)nc2cc(Nc3nccs3)ccc12`, the zone of inhibition at 10 µg/disc was 13 mm.
With `NC(=S)Nc1ccc2c(C(=O)O)cc(-c3ccccc3)nc2c1`, the zone of inhibition at 10 µg/disc turned out to be 5 mm.
On to `O=C(O)CNc1ccc2c(C(=O)O)cc(-c3ccccc3)nc2c1`, for which the zone of inhibition at 10 µg/disc stood at 5 mm.
Still for that read-out and setting: then `O=C(O)c1cc(-c2ccccc2)nc2cc(N3CCNCC3)ccc12`, with 7 mm.
As for `O=C(O)c1cc(-c2ccccc2)nc2cc(Cl)ccc12`, the zone of inhibition at 10 µg/disc was determined as 4 mm.

The test system of the next test is Bacillus pumilus. Briefly: Antibacterial activity against Bacillus pumilus MTCC 1640 at 10 ug/well after 24 hr by agar well diffusion method. Format: functional. Conditions: MTCC 1640, 24 h, read-out: DIZ.
Regarding `NC(=O)Nc1ccc2c(C(=O)O)cc(-c3ccccc3)nc2c1`, the zone of inhibition at 10 µg/disc was determined as 6 mm.
On the same count and under the same terms, the same measure for `O=C(O)c1cc(-c2ccccc2)nc2cc(Nc3nccs3)ccc12`: 12 mm; for `NC(=S)Nc1ccc2c(C(=O)O)cc(-c3ccccc3)nc2c1`: 3 mm; for `O=C(O)c1cc(-c2ccccc2)nc2cc(Nn3cnnc3)ccc12`: 2 mm.
As to `O=C(O)CNc1ccc2c(C(=O)O)cc(-c3ccccc3)nc2c1`, the zone of inhibition at 10 µg/disc stood at 2 mm.
Consider `O=C(O)c1cc(-c2ccccc2)nc2cc(N3CCNCC3)ccc12`, for which the zone of inhibition at 10 µg/disc was 5 mm.
As to `O=C(O)c1cc(-c2ccccc2)nc2cc(Nc3ccncc3)ccc12`, the zone of inhibition at 10 µg/disc came out at 6 mm.
The same measure, in the same setting: the same measure for `O=C(O)c1cc(-c2ccccc2)nc2cc(Cl)ccc12`: 8 mm.
